Laboratory results reported in US6737383B1, “Herbicidal oxadiazolidines” (priority 1999, dated 2004).

Columns and labels:
[1] = test system: wheat; test: Test B pre/postemergence wheat; assay type: in vivo, Triticum aestivum
Outline: (§1)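 Herbicidal effect was estimated by eye on a ten-point control scale after plants spent twelve to sixteen days in a greenhouse following soil or foliar treatment. Foliar sprays targeted plants at one to four leaves; all doses were formulated in a non-phytotoxic solvent with surfactant.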

[2] = test system: morningglory; test: Test B pre/postemergence morningglory; assay type: in vivo, Ipomoea hederacea
Outline: as §1

[3] = test system: cocklebur; test: Test B pre/postemergence cocklebur; assay type: in vivo, Xanthium strumarium
Outline: as §1

[4] = test system: rice; test: Test B flood test rice; assay type: in vivo, Oryza sativa
Outline: (§2)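 Read-out is a visual response score from 0 (no effect) to 10 (complete control), assigned by comparison with untreated controls. Treatment was applied at the 2-leaf stage, and plants stayed in the greenhouse for twelve to sixteen days before scoring.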

[5] = test system: giant foxtail; test: Test B pre/postemergence giant foxtail; assay type: in vivo, Setaria faberii
Outline: as §1

[6] = test system: duck salad; test: Test B flood test duck salad; assay type: in vivo, Heteranthera limosa
Outline: as §2

[7] = test system: velvetleaf; test: Test B pre/postemergence velvetleaf; assay type: in vivo, Abutilon theophrasti
Outline: as §1

[8] = test system: sugar beet; test: Test B pre/postemergence sugar beet; assay type: in vivo, Beta vulgaris
Outline: as §1

[9] = test system: blackgrass; test: Test B pre/postemergence blackgrass; assay type: in vivo, Alopecurus myosuroides
Outline: as §1

[10] = test system: wild oat; test: Test B pre/postemergence wild oat; assay type: in vivo, Avena fatua
Outline: as §1

[11] = test system: soybean; test: Test B pre/postemergence soybean; assay type: in vivo, Glycine max
Outline: as §1

[12] = test system: purple nutsedge; test: Test B pre/postemergence purple nutsedge; assay type: in vivo, Cyperus rotundus
Outline: as §1

[13] = test system: smallflower flatsedge; test: Test B flood test smallflower flatsedge; assay type: in vivo, Cyperus difformis
Outline: as §2

[14] = test system: corn; test: Test B pre/postemergence corn; assay type: in vivo, Zea mays
Outline: as §1

[15] = test system: bamyardgrass; test: Test B flood test barnyardgrass; assay type: in vivo, Echinochloa crus-galli
Outline: as §2

[16] = test system: pigweed; test: Test B pre/postemergence pigweed; assay type: in vivo, Amaranthus retroflexus
Outline: as §1

[17] = test system: rape; test: Test B pre/postemergence rape; assay type: in vivo, Brassica napus
Outline: as §1

[18] = test system: bedstraw; test: Test B pre/postemergence bedstraw; assay type: in vivo, Galium aparine; settings: Preemergence; for Bedstraw plant response rating: scale 0 to 10, 0 is no effect, 10 is complete control
Outline: as §1

[19] = test system: crabgrass; test: Test B pre/postemergence crabgrass; assay type: in vivo, Digitaria sanguinalis
Outline: as §1

[20] = test system: surinam grass; test: Test B pre/postemergence surinam grass; assay type: in vivo, Brachiaria decumbens
Outline: as §1

[21] = Postemergence, Rate 125 g/ha, scale 0 to 10, 0 is no effect, 10 is complete control
[22] = Postemergence, Rate 500 g/ha, scale 0 to 10, 0 is no effect, 10 is complete control
[23] = Preemergence, Rate 62 g/ha, scale of 0 to 10 where 0 is no effect and 10 is complete control
[24] = Preemergence, Rate 125 g/ha, scale 0 to 10, 0 is no effect, 10 is complete control
[25] = Preemergence, Rate 500 g/ha, scale of 0 to 10 where 0 is no effect and 10 is complete control
[26] = Rate 62 g/ha, Postemergence, scale 0 to 10 (0 no effect, 10 complete control)
[27] = Postemergence, Rate 250 g/ha, scale 0 to 10
[28] = Preemergence, Rate 250 g/ha, scale 0 to 10, 0 is no effect, 10 is complete control
[29] = Rate 62 g/ha, flood test species, Pre-emergence, visual evaluation after twelve to sixteen days
[30] = Rate 125 g/ha, under heading Pre-emergence, flood test species, visual evaluation after twelve to sixteen days
[31] = Rate 250 g/ha, Pre-emergence (flood test species), scale 0 to 10, 0 is no effect, 10 is complete control
[32] = Rate 500 g/ha, Pre-emergence section of Table B, 0 to 10 scale (0 no effect, 10 complete control)

In the case of `CC(C)N(C(=O)n1oc(=O)n(CCCNC(=O)CCl)c1=O)c1ccccc1` [Compound 493], the “Wheat plant response rating” value [1, 21] is reported as 0, the “Plant response rating, Wheat” value [1, 22] is reported as 0 and the “Plant response rating, Wheat” value [1, 23] is reported as 0. The “Wheat plant response rating” value [1, 24] was 0, the “Wheat plant response rating” value [1, 25] was 0 and the “Wheat plant response rating” value [1, 26] was 0. For the same compound, the “Morningglory plant response rating” value [2, 21] was 0, the “Plant response rating, Morningglory” value [2, 22] was 0 and the “Plant response rating, Morningglory” value [2, 23] was 0. The “Morningglory plant response rating” value [2, 24] was 0, the “Morningglory plant response rating” value [2, 25] was 0 and the “Morningglory plant response rating” value [2, 26] was 0. The “Cocklebur plant response rating” value [3, 21] was 0, the “Cocklebur plant response rating” value [3, 27] was 0 and the “Plant response rating, Cocklebur” value [3, 22] was 0. The “Plant response rating, Cocklebur” value [3, 23] was 0, the “Cocklebur plant response rating” value [3, 24] was 0 and the “Cocklebur plant response rating” value [3, 28] was 0. The “Cocklebur plant response rating” value [3, 25] was 0, the “Cocklebur plant response rating” value [3, 26] was 0 and the “Plant response rating, Rice (0 to 10 scale, 0 is no effect, 10 is complete control)” value [4, 29] was 0. For the same compound, the “Rice plant response rating (0 to 10 scale, 0 is no effect, 10 is complete control)” value [4, 30] was 0, the “Rice plant response rating” value [4, 31] was 0 and the “Rice plant response rating” value [4, 32] was 0. The “Giant foxtail plant response rating” value [5, 21] was 0, the “Plant response rating, Giant foxtail” value [5, 22] was 0 and the “Plant response rating, Giant foxtail” value [5, 23] was 3. For the same compound, the “Giant foxtail plant response rating” value [5, 24] was 3, the “Giant foxtail plant response rating” value [5, 25] was 10 and the “Giant foxtail plant response rating” value [5, 26] was 0. For the same compound, the “Plant response rating, Ducksalad (0 to 10 scale, 0 is no effect, 10 is complete control)” value [6, 29] was 0, the “Ducksalad plant response rating (0 to 10 scale, 0 is no effect, 10 is complete control)” value [6, 30] was 0 and the “Ducksalad plant response rating” value [6, 31] was 0. For the same compound, the “Ducksalad plant response rating” value [6, 32] was 0, the “Velvetleaf plant response rating” value [7, 21] was 0 and the “Plant response rating, Velvetleaf” value [7, 22] was 0. For the same compound, the “Plant response rating, Velvetleaf” value [7, 23] was 0, the “Velvetleaf plant response rating” value [7, 24] was 0 and the “Velvetleaf plant response rating” value [7, 25] was 0. The “Velvetleaf plant response rating” value [7, 26] was 0, the “Sugarbeets plant response rating” value [8, 21] was 0 and the “Plant response rating, Sugarbeets” value [8, 22] was 0. The “Plant response rating, Sugarbeets” value [8, 23] was 0, the “Sugarbeets plant response rating” value [8, 24] was 0 and the “Sugarbeets plant response rating” value [8, 25] was 0. The “Sugarbeets plant response rating” value [8, 26] was 0, the “Blackgrass plant response rating” value [9, 21] was 0 and the “Blackgrass plant response rating” value [9, 27] was 0. For the same compound, the “Plant response rating, Blackgrass” value [9, 22] was 0, the “Plant response rating, Blackgrass” value [9, 23] was 0 and the “Blackgrass plant response rating” value [9, 24] was 0. The “Blackgrass plant response rating” value [9, 28] was 0, the “Blackgrass plant response rating” value [9, 25] was 0 and the “Blackgrass plant response rating” value [9, 26] was 0. The “Wild oats plant response rating” value [10, 21] was 0, the “Plant response rating, Wild oats” value [10, 22] was 0 and the “Plant response rating, Wild oats” value [10, 23] was 0. The “Wild oats plant response rating” value [10, 24] was 0, the “Wild oats plant response rating” value [10, 25] was 0 and the “Wild oats plant response rating” value [10, 26] was 0. The “Soybean plant response rating” value [11, 21] was 0, the “Plant response rating, Soybean” value [11, 22] was 2 and the “Plant response rating, Soybean” value [11, 23] was 0. For the same compound, the “Soybean plant response rating” value [11, 24] was 0, the “Soybean plant response rating” value [11, 25] was 0 and the “Nutsedge plant response rating” value [12, 21] was 0. For the same compound, the “Plant response rating, Nutsedge” value [12, 22] was 0, the “Nutsedge plant response rating” value [12, 24] was 0 and the “Nutsedge plant response rating” value [12, 25] was 0. The “Nutsedge plant response rating” value [12, 26] was 0, the “Plant response rating, S. Flatsedge (0 to 10 scale, 0 is no effect, 10 is complete control)” value [13, 29] was 0 and the “S. Flatsedge plant response rating (0 to 10 scale, 0 is no effect, 10 is complete control)” value [13, 30] was 0. For the same compound, the “S. Flatsedge plant response rating” value [13, 31] was 0, the “S. Flatsedge plant response rating” value [13, 32] was 0 and the “Corn plant response rating” value [14, 21] was 0. For the same compound, the “Corn plant response rating” value [14, 27] was 0, the “Plant response rating, Corn” value [14, 22] was 0 and the “Plant response rating, Corn” value [14, 23] was 0. For the same compound, the “Corn plant response rating” value [14, 24] was 0, the “Corn plant response rating” value [14, 25] was 0 and the “Corn plant response rating” value [14, 26] was 0. The “Plant response rating, Barnyardgrass (0 to 10 scale, 0 is no effect, 10 is complete control)” value [15, 29] was 0, the “Barnyardgrass plant response rating (0 to 10 scale, 0 is no effect, 10 is complete control)” value [15, 30] was 0 and the “Barnyardgrass plant response rating” value [15, 31] was 0. The “Barnyardgrass plant response rating” value [15, 32] was 0, the “Redroot pigweed plant response rating” value [16, 21] was 0 and the “Plant response rating, Redroot pigweed” value [16, 22] was 0. The “Plant response rating, Redroot pigweed” value [16, 23] was 0, the “Redroot pigweed plant response rating” value [16, 24] was 0 and the “Redroot pigweed plant response rating” value [16, 25] was 0. For the same compound, the “Redroot pigweed plant response rating” value [16, 26] was 0, the “Rape plant response rating” value [17, 21] was 0 and the “Plant response rating, Rape” value [17, 22] was 0. For the same compound, the “Plant response rating, Rape” value [17, 23] was 0, the “Rape plant response rating” value [17, 24] was 0 and the “Rape plant response rating” value [17, 25] was 0. For the same compound, the “Rape plant response rating” value [17, 26] was 0, the “Plant response rating, Bedstraw” value ([18]; Rate 62 g/ha, scale of 0 to 10 where 0 is no effect and 10 is complete control) was 0 and the “Bedstraw plant response rating” value ([18]; Rate 125 g/ha) was 0. For the same compound, the “Bedstraw plant response rating” value ([18]; Rate 250 g/ha) was 0, the “Bedstraw plant response rating” value ([18]; Rate 500 g/ha) was 0 and the “Crabgrass plant response rating” value [19, 21] was 0. For the same compound, the “Crabgrass plant response rating” value [19, 27] was 0, the “Plant response rating, Crabgrass” value [19, 22] was 4 and the “Plant response rating, Crabgrass” value [19, 23] was 0. The “Crabgrass plant response rating” value [19, 24] was 0, the “Crabgrass plant response rating” value [19, 25] was 2 and the “Crabgrass plant response rating” value [19, 26] was 0. For the same compound, the “B. signalgrass plant response rating” value [20, 21] was 0, the “B. signalgrass plant response rating” value ([20]; Postemergence, Rate 250 g/ha, scale 0 to 10, 0 no effect, 10 complete control) was 0 and the “Plant response rating, B. signalgrass” value [20, 22] was 0. For the same compound, the “Plant response rating, B. signalgrass” value [20, 23] was 0, the “B. signalgrass plant response rating” value [20, 24] was 0 and the “B. signalgrass plant response rating” value [20, 28] was 0. For the same compound, the “B. signalgrass plant response rating” value ([20]; Preemergence, Rate 500 g/ha, scale 0 to 10, 0 is no effect, 10 is complete control) was 0 and the “B. signalgrass plant response rating” value [20, 26] was 0.
